IC50 data for five molecules are collected here from BindingDB's records for patent US20240189315 (Boehringer Ingelheim International, 2024).

The structures appear in SMILES notation. Bounds are passed on as bounds.

Sequence of Cyclic GMP-AMP synthase (Q8N884 whole entry): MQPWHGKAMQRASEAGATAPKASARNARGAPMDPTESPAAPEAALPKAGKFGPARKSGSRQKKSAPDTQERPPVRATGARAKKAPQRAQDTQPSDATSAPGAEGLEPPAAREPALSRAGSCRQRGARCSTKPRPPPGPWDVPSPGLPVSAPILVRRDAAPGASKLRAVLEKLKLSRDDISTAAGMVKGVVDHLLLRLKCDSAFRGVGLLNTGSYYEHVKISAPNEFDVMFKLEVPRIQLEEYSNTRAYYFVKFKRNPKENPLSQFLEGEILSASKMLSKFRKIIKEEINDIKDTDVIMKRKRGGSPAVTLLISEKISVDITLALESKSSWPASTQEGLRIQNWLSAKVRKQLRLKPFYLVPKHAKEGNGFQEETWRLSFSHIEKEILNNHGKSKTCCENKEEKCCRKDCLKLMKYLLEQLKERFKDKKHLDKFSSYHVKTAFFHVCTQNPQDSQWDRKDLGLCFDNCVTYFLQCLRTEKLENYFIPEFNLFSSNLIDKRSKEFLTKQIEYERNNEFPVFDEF

The test concerns the target Cyclic GMP-AMP synthase (Homo sapiens, UniProt Q8N884). As to the kind of experiment: in vitro human biochemical cGAS inhibition.
The IC50 is the midpoint of a concentration-inhibition curve. `COC(=O)[C@@H]1C[C@H](Oc2ncc(Cl)cc2[C@@]2(F)CCS(=O)(=O)C[C@@H]2C)CN1c1nc(C(F)F)nc2c1oc1ccccc12` [US12043625, Example P02 (prodrug of Ex. 1.13)] yielded an IC50 greater than 9.95 µM. As for `C[C@H]1CN2CC[C@]1(F)c1cc(Cl)cnc1O[C@H]1C[C@@H](C(=O)O)N(C1)c1nc(nc3c1oc1ccccc13)CCCCOC2=O` [US20240189315, Example 35], the figure is 0.027 µM; as for `COC(=O)[C@@H]1C[C@H](Oc2ncccc2N2CCOC3(COC3)[C@@H]2C)CN1c1nc(C(F)F)nc2c1oc1ccccc12` [US20240189315, Example P01 of PCT/EP2022/062480) (Prodrug of Ex. 4.04 of PCT/EP-2022/062480)], greater than 9.96 µM; as for `COC(=O)[C@@H]1C[C@H](Oc2ncc(Br)cc2N2CCOC3(COC3)[C@@H]2C)CN1c1nc(C(F)(F)F)nc2c1oc1ccccc12` [US20240189315, Example P02 of PCT/EP2022/062480) (Prodrug of Ex. 1.10 of PCT/EP2022/062480)], greater than 9.95 µM. Under `COC(=O)[C@@H]1C[C@H](Oc2ncc(-c3cccnc3OC)cc2N2CCOC3(COC3)[C@@H]2C)CN1c1nc(C(F)(F)F)nc2c1oc1ccccc12` [US20240189315, Example P04 of PCT/EP2022/062480) (Prodrug of Ex. 3.14 of PCT/EP2022/062480)] stands greater than 9.95 µM.
